The values that follow come from US12269816B2, “Benzothiophene compound, preparation method therefor and use thereof” (SICHUAN KELUN-BIOTECH BIOPHARMACEUTICAL CO., LTD., priority 2019, dated 2025).

In test [1] the test system is STING pathway cytokine hIFN-β in human THP-1 cells. The test can be described thus: ELISA of STING pathway cytokine hIFN-β expression in human THP-1 cells. It is filed as cell-based. Conditions: for EC50: hIFN-β expression; for EC50 / Emax: 8 hours, ELISA; for Emax: highest expression of hIFN-β; for agonistic effect on the expression of hIFN-β: result in words. The text has this:
In this experiment, the expression of STING signal pathway cytokine hIFN-β was detected in THP1 cells (Nanjing Cobioer) by the ELISA method, so as to evaluate the agonistic effect of the compounds to be tested on the expression of STING pathway cytokine hIFN-β at the cellular level.
THP1 cells (Nanjing Cobioer) in the logarithmic phase were centrifuged, and resuspended in a cell culture solution to a density of 8×10^6 cells/ml. The cell suspension was inoculated into a 24-well cell culture plate (Corning) at 250 μL/well.
The mother liquor of the compound to be tested was diluted with a cell culture solution to obtain a 2× working concentration diluted solution (control compounds 1 and 2 were diluted at a 2-fold gradient: 200, 100, 50, 25, 12.5, 6.25, 3.125, 1.5625 and 0 μM; and compounds 4, 6, and 8 were diluted at a 3-fold gradient: 200, 66.67, 22.22, 7.41, 2.47, 0.82, 0.27, 0.091 and 0 μM). The 2× working concentration diluted solution of the compound was added into 24-well plate (250 μl of the culture solution containing 2% DMSO was added into the negative control well) at 250 μL/well. The culture plate was placed in a cell culture incubator, and incubated for 8 hours. After the cell incubation, the supernatant was collected by centrifugation at 300 g×5 min, and the hIFN-β content (pg/ml) in the cell culture supernatant was detected according to the operating instructions of the VeriKine Human […] ELISA kit from PBL (obtained by conversion of the […] absorbance-hIFN-β standard concentration standard curve and the OD450 nm absorbance value read by the microplate reader). […] was calculated through log(agonist) vs. response—Variable slope fitting by the Graphpad Prism software, and the experimental results are shown in Table 2.
In the table, EC50 refers to the concentration of a compound when the expression of hIFN-β generated by stimulation of the compound reaches half of Emax and Emax refers to the highest expression of hIFN-β generated by stimulation of the compound.

In test [2] the test system is STING and its downstream proteins TBK1 and IRF3 in Raw264.7 cells. The test can be described thus: Western blotting of phosphorylation of STING signal pathway proteins in mouse Raw264.7 cells. The format is cell-based. Conditions: 3 hours, protein blotting, FIGS. 6-7, result in words. The text has this:
In this experiment, the changes in the phosphorylation levels of STING and its downstream proteins TBK1 (TANK-binding kinase 1) and IRF3 (interferon regulatory factor 3) were detected by protein blotting to evaluate the agonistic effect of the test compounds on the STING signal pathway at the cellular level.
The Raw264.7 cells in the logarithmic phase were centrifuged, and resuspended in a cell culture solution to a density of 1.6×10^6 cells/mL. The cell suspension was inoculated into a 6-well cell culture plate (Corning) at 1 mL/well. The compound to be tested was diluted with a cell culture solution to 2× working solution concentration (control compounds 1 and 2: 60 μM; compound 8: 0.6 μM, 6 μM, and 60 μM; compounds 2, 4 and 6: 6 μM, 20 μM, and 60 μM). 1 mL of the diluted solution of the compound was added into a 6-well plate (1 mL of the culture solution containing 2% DMSO was added into the negative control well). The plate was placed in a cell incubator, and incubated for 3 hours. After the incubation, the cells were collected by centrifugation, lysed with 60 μL cell lysis buffer (CST) for 30 minutes, and centrifuged at 12000 rpm for 15 minutes. The supernatant was collected to determine the protein concentration, and then an appropriate amount of 5× protein loading buffer was added. The mixture was heated at 95° C. for 10 minutes to prepare a protein electrophoresis sample. Finally, protein blotting was performed to detect the phosphorylation level of the corresponding protein. The primary antibodies used in the protein blotting were purchased from CST: STING (D2P2F) rabbit mAb, Phospho-STING (Ser365) rabbit mAb, Phospho-IRF3 (Ser396) (D601M) rabbit mAb, IRF3 (D83B9) rabbit mAb, TBK1/NAK (D1B4) rabbit mAb, Phospho-TBK1/NAK (Ser172) (D52C2) XPV rabbit mAb, GAPDH (D16H11) rabbit mAb; and the secondary antibody horseradish peroxidase-conjugated goat anti-rabbit IgG (H+L) was purchased from Zsgb-bio.

The target in the next test is T1, hSTING protein (Homo sapiens, UniProt Q86WV6).
T1 construct: purchased Cisbio
T1 sequence (Q86WV6 whole entry H232R): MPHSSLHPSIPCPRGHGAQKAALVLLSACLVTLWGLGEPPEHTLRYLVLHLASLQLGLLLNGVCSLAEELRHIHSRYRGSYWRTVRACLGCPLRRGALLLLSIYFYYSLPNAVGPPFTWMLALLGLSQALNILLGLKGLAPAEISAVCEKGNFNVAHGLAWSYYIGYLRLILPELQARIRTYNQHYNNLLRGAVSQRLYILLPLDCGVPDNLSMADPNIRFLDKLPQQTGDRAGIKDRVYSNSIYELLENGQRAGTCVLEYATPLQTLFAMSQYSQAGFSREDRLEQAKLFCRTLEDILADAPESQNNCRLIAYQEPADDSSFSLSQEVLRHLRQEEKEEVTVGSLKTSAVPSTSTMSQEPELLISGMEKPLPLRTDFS
The test can be described thus: Human STING binding kit (HTRF) competitive binding assay. The note with it: for Ki: calculated as Ki=1/2*IC50 per kit instructions; for IC50: competition with d2-STING-ligand for 6×His-hSTING, HTRF, 3 h at 25° C.; for binding affinity to the hSTING protein: result in words. An excerpt: In this experiment, the capability of the compound and the specific ligand (d2-STING-ligand) in a Human STING binding kit from Cisbio for competitively binding to the 6×His-hSTING protein was detected using the Human STING binding kit (HTRF method), so as to evaluate the binding affinity between the compound to be tested and the hSTING protein.
The compound was gradiently diluted with a dilution buffer in the Human STING binding kit (the diluent buffer reagent) to obtain a 4× working concentration diluted solution. […] The 6×His-hSTING protein (50× in the mother liquor) was diluted to 1× with the detection buffer in the Human STING binding kit (the detection buffer reagent). 5 μl of the diluted solution was added into the corresponding wells of a 384-well plate, and the well with no protein and no compound was set as a negative control well (min), while the well with the protein and no compound was set as a positive control well (max). The d2-STING-ligand and Tb^3+-anti-6×His-antibody (both 50× in the mother liquor) were diluted to 1× with the detection buffer in the Human STING binding kit (the detection buffer reagent), and mixed uniformly at a ratio of 1:1. 10 μl of the mixed solution was added to the corresponding wells of a 384-well plate. The plate was sealed and incubated at room temperature (25° C.) for 3 h. A BMG microplate reader was used to read HTRF, and the ratio was calculated according to the following formula: Ratio=signal665nm/signal620nm×10000. […] IC50 was calculated through log(inhibitor) vs. response—Variable slope fitting by the Graphpad Prism software.

Consider `COc1cc2sc(C(=O)CCC(=O)O)cc2cc1OCCCOc1cc2cc(C(=O)N(C)CCC(=O)O)sc2cc1OC` [Compound 8, 4-(5-(3-((2-((2-carboxyethyl)(methyl)carbamoyl)-6-methoxybenzo[b]thiophen-5-yl)oxy)propoxy)-6-methoxybenzo[b]thiophen-2-yl)-4-oxobutanoic Acid], for which, in test [1], a half-maximal response (EC50) required 1250 nM, the “Emax” value turned out to be 917.1 pg/mL and the “agonistic effect on the expression of hIFN-β” value (“agonistic effect … of hIFN-β” below) is “strong agonistic effect”. For the same compound, in test [2], the “agonistic effect on the phosphorylation levels of STING, TBK1 and IRF3” value (“agonistic effect … TBK1 and IRF3” below) is given as “strong agonistic effects”. Moreover, on hSTING protein, the Ki was 0.069 nM, the IC50 amounted to 0.139 nM and the “binding affinity to the hSTING protein” value is “strong binding affinity”.
In the case of `COc1cc2sc(C(=O)N(C)CCC(=O)O)cc2cc1OCCCOc1cc2sc(C(=O)CCC(=O)O)cc2cc1OC` [Compound 4, 4-(6-(3-((2-((2-carboxyethyl)(methyl)carbamoyl)-6-methoxybenzo[b]thiophen-5-yl)oxy)propoxy)-5-methoxybenzo[b]thiophen-2-yl)-4-oxobutanoic acid], in test [1], the response was half-maximal at 5570 nM (EC50), the “Emax” value turned out to be 908.0 pg/mL and the “agonistic effect … of hIFN-β” value is “strong agonistic effect”. In test [2], the “agonistic effect … TBK1 and IRF3” value is given as “strong agonistic effects”. Also, at hSTING protein, the Ki is 16.1 nM, the IC50 was 32.2 nM and the “binding affinity to the hSTING protein” value was “strong binding affinity”.
`COc1cc2sc(C(=O)CCC(=O)O)cc2cc1OCCCOc1cc2sc(C(=O)N(C)CCC(=O)O)cc2cc1OC` [Compound 6, 4-(5-(3-((2-((2-carboxyethyl)(methyl)carbamoyl)-5-methoxybenzo[b]thiophen-6-yl)oxy)propoxy)-6-methoxybenzo[b]thiophen-2-yl)-4-oxobutanoic acid]: in test [1], the EC50 stood at 1820 nM, the “Emax” value was determined as 829.6 pg/mL and the “agonistic effect … of hIFN-β” value is “strong agonistic effect”. Further, in test [2], the “agonistic effect … TBK1 and IRF3” value is on record as “strong agonistic effects”. In addition, on hSTING protein, the Ki was 4.55 nM, the IC50 turned out to be 9.1 nM and the “binding affinity to the hSTING protein” value is listed as “strong binding affinity”.
